Some results are limits rather than exact numbers.

Series [1] relates to anti-Neu5Gc antibodies in human sera. Briefly: Inhibition of human serum anti-Neu5Gc antibody ELISA reactivity to Neu5Gc-PAA. The series is classed as binding. Conditions: free sugar at 2 mM. The procedure:
Detection of Anti-Neu5Gc and anti-α-Gal specific antibodies in human sera—Microtiter (Costar, Corning, N.Y.) plate wells were coated with Neu5Ac-polyacrylamide(PAA), Neu5Gc-PAA, or Galα1-3GalBeta1-4GlcNAc-PAA (Glycotech, Rockville, Md.) at a concentration of 500 ng/well, in 50 mM sodium carbonate-bicarbonate buffer pH 9.5, at 4° C. overnight. After washing with TBS, pH 7.5 and blocking with TBST for 2 h at RT, triplicate wells were incubated with 1:50 dilutions of serum in TBST at RT for 4 h. Wells were washed 5 times with TBS, and incubated with HRP-conjugated mouse anti-human IgA (Calbiochem, San Diego, Calif.), anti-human IgG (Jackson ImmunoResearch, West Grove, Pa.) or anti-human IgM (KPL, Gaithersburg, Md.) each diluted in TBST at 1:20,000, at RT for 1.5 hour. The IgG anti-Neu5Gc and anti-α-Gal antibodies were quantitated using a standard curve of normal human IgG coated to the wells under the same general conditions.
Anti-Neu5Gc antibodies of the IgA, IgM and IgG classes were detected in the sera of all three subjects who ingested Neu5Gc at baseline, but no increases occurred after Neu5Gc ingestion (not shown). […] Specificity was confirmed by showing that anti-Neu5Gc reactivity was blocked by chimpanzee serum in a concentration-dependent manner, but not by equivalent amounts of a Neu5Gc antibody-negative human serum (FIG. 4B). […]
On the technique in general: In an ELISA, binding on a coated surface is turned into a signal by an enzyme label.

The next series relates to Caco-2 cells. Briefly: Feeding of human epithelial cells with Neu5Gc. The series is classed as cell-based. The settings on record: Caco-2, 3 mM Neu5Gc for 3 days, HPLC. The procedure: Feeding of Human Epithelial Cells with Neu5Gc—Caco-2 cells (human epithelial cells isolated from a primary colon carcinoma, ATCC, Manassas, Va.), were propagated in α-MEM (Gibco, Invitrogen Corporation, San Diego, Calif.) supplemented with 20% heat inactivated Fetal Calf Serum, at 37° C., 5% CO2. Prior to feeding, the cells were split and cultured for 4 days in α-MEM supplemented with 20% heat inactivated premium human serum type AB (Irvine scientific, Santa Ana, Calif.). Cells were then cultured in the presence of various concentrations of free Neu5Gc (0, 0.3, 1 and 3 mM, respectively) for 3 days at 37° C. Cells were then washed with cold PBS, scraped into 20 mM sodium phosphate pH 7.5 and sonicated. The protein extract was quantified and analysed by Western blot using the anti-Neu5Gc antibody.
Although human cells cultured in fetal calf serum express cell surface Neu5Gc in small amounts (Muchmore, et al., supra, and Oetke, et al., supra), this could represent either metabolic incorporation or non-specific absorption. Human epithelial cells were cultured in human serum until no traces of Neu5Gc derived from fetal calf serum could be detected by HPLC (typically ˜4 days). Culture was then continued for 3 days in the absence or presence of varying amounts of free Neu5Gc. […]

A short description of series [2]: Human Neu5Gc ingestion study. The series is classed as in vivo. The procedure: Human Neu5Gc Ingestion Study—Human subjects were enlisted in the study, and were told to avoid animal foods for 2 days, all medications for 1 day, use a lanolin-free (Neu5Gc-free) shampoo for 2 days, and ingest only fruit juice on the morning of study. Subjects then drank 150 mg of porcine submaxillary mucin Sias (see above) dissolved in 100 ml water. For the next 6 h they drank a 1:1 mixture of fruit juice and soymilk (Sia free) at ˜2 ml/Kg/hr. Serum, urine and saliva samples were obtained at multiple time points. Human saliva was collected by chewing parafilm, after washing the mouth out well with water. Urine volume and pH were recorded prior to centrifugation at 1000 g for 10 min, and collection of the supernatant. All samples were stored frozen at −20° C. Head hairs (˜20) and/or facial hair trimmings (from men) were collected prior to, and on several days after Neu5Gc ingestion.
Purification and analysis of Sialic Acids and N-acylmannosamines from Human Samples—Human salivary mucin was precipitated by adjusting to pH 3 with 100 mM acetic acid, stirring at 4° C. overnight, collected at 14,000 g for 10 min, and washed twice with 1 ml of ice-cold PBS. Human hair clippings were washed in 100 mM ice-cold acetic acid for two h and crushed in a clean ceramic mortar. Bound Sias from saliva, hair or serum were released with mild acid as above, filtered through Microcon 10 filters (Millipore, Bedford, Mass.), dried down, reconstituted in water and analyzed for Sia content by DMB-HPLC.
Five ml urine aliquots were diluted 5-fold and loaded onto 10 ml columns of AG50W-X2 resin (H^+ form, BioRad, Richmond, Calif.) equilibrated in water. The run-through and washes (2×10 ml of water) were pooled and loaded onto 10 ml columns of AG1X8 resin (Formate form, BioRad) equilibrated in water. The combined run-through and washes (2×10 ml of water) were lyophilized. After washing with 5 volumes of 10 mM formic acid, free Sias were eluted with 5 volumes of 1M formic acid, diluted two-fold with water, and lyophilized.
Free Sias were purified from urine samples, and analyzed for Neu5Gc content by DMB-HPLC. Since overlapping fluorescent peaks prevented definitive identification and quantification, HPLC fractions eluting at the time expected for DMB-Neu5Gc were collected and subjected to MS, confirming an increase in ion peaks at m/z 424 and m/z 442. The sum of ion intensities of m/z 424 and m/z 442 at each time point provided an estimate of Neu5Gc quantity. Ingested Neu5Gc was rapidly absorbed and excreted into the urine (FIG. 3A). About 3-6% of the ingested dose was excreted within 4-6 h, with the peak excretion rate at 2-3 h and a return to baseline levels within 24 h.

The test system of another series is human cells. Briefly: Human cells fed with free Neu5Gc, incorporation into endogenous glycoproteins. The series is classed as cell-based. The source says: It is therefore reasoned that the Neu5Gc in normal humans originates from exogenous sources. […] Likewise, human cells cultured in FCS incorporated Neu5Gc from the serum glycoproteins into the native glycoconjugates of the cells (Muchmore, E. A., Diaz, S, and Varki, A. (1998). Am J Phys Anthropol 107:187-198; and Tangvoranuntakul, et al., supra.

For the compound `CC(=O)N[C@H]1[C@H]([C@H](O)[C@H](O)CO)OC(O)(C(=O)O)C[C@@H]1O` (some centres unmarked) [Neu5Ac, N-acetylneuraminic acid, reference compound], the “inhibition of anti-Neu5Gc reactivity of human sera” value in series [1] is given as “not”.

Consider `O=C(CO)N[C@H]1[C@H]([C@H](O)[C@H](O)CO)OC(O)(C(=O)O)C[C@@H]1O` (some centres unmarked) [Neu5Gc, N-glycolylneuraminic acid], for which the “highest level of incorporation of Neu5Gc into the cells, of total Sia” value in the series on Caco-2 cells came to 85%. Further, the “subjects with increase of Neu5Gc in salivary mucins” value in series [2] (2 days after ingestion, MS) is listed as 2 of 3. Further, in series [2] (after ingestion), the “time of decline of salivary mucin Neu5Gc to baseline levels” value was not above 4 days. The “Neu5Gc in serum samples” value in series [2] (any time points after ingestion) is recorded as “not detected”. Moreover, in series [2] (oral 150 mg), the “time of peak urinary excretion rate” value lay in the range of 2 to 3 h and the “time of return of urinary excretion to baseline levels” value was not above 24 h. Besides, the “reactions to Neu5Gc ingestion” value in series [2] (oral 150 mg, human subjects) is recorded as “no immediate reactions”. Besides, the “share of the ingested dose excreted into the urine” value in series [2] (within 4-6 h after oral 150 mg porcine submaxillary mucin Sias, MS estimate) is 3-6%. Moreover, the “inhibition of anti-Neu5Gc reactivity of human sera” value in series [1] is recorded as more than 70%. The “level of Neu5Gc incorporated into endogenous glycoproteins” value with human cells was more than 50%.

Values taken from patent US8084219B2, “Methods for detecting and analyzing N-glycolylneuraminic acid (Neu5Gc) in biological materials” (The Regents of the University of California, priority 2003, dated 2011).
